Patent publication US20140357654A1, “METHODS OF TREATING SCHIZOPHRENIA WITH PHENYLALANINE ENAMIDE DERIVATIVE INHIBITORS OF a4 INTEGRIN POSSESSING A CYCLOBUTENE GROUP” (AESTUS THERAPEUTICS, INC., priority 2011, published 2014)

System: Male Sprague-Dawley rats
Test: Reversal of PCP-induced deficit in prepulse inhibition of the acoustic startle response (PPI)
Assay type: in vivo, rat
Details: for reversal of PCP-induced deficit in PPI, percent PPI averaged for all three prepulse intensities: average of 69, 73 and 81 dB, FIG. 2; for reversal of PCP-induced deficit in PPI, percent PPI averaged for all three prepulse intensities / reversal of PCP-induced deficit in PPI: 50 mg/kg p.o., adult male rats; for effect on pre-pulse inhibition: 10 and 50 mg/kg p.o. 45 min before PCP 2.5 mg/kg i.p.; for reversal of PCP-induced deficit in PPI: prepulse intensity 73 dB, FIG. 1
Description: Male Sprague-Dawley rats weighing 210-250 g at time of experiment were used. Animals were housed in a temperature and humidity controlled environment and allowed free access to food and water prior to use.
The amplitude of the inherent startle response varies considerably from animal to animal. The gain of the platforms must be calibrated to ensure that the average startle waveform falls within the desired range. To this end, baseline studies were conducted before the full PPI protocol to allow the calibration of the platforms to be fine-tuned to the startle waveform amplitude. This also allows the animals to become acclimatised to the testing equipment prior to drug administration.
Animals were placed in restraining holders and transferred to the designated chamber. Once all holders were securely fastened to the platform, the Baseline protocol was started. This consists of: • Acclimation Period: Animals were exposed to 5 minutes of 65 decibel (dB) background noise (white noise). • Block 1: 10× startle stimulus alone (white noise, 120 dB, 40 ms) • Block 2: 6× startle stimulus alone • 6× pre-pulse plus startle stimulus (pure tone, 16 dB above background noise, • 20 ms) followed 100 ms later by the startle stimulus. • During this time, the amplitude of the startle responses was recorded. On completion of this protocol, the sensitivity of the equipment was re-calibrated where necessary by adjusting the gain settings.
The same group of rats was again subjected to the Baseline protocol described above. Again, on completion of this protocol, the sensitivity of the equipment was re-calibrated where necessary by adjusting the gain settings. […] These animals were then returned to their home cages for subsequent dosing with compound.
The study compounds were suspended from dry powder stocks in Vehicle (5% Tween 80/5% PEG/saline) and sonicated for 60 minutes at 37° C. to generate suspensions suitable for oral dosing. Control rats received Vehicle by oral gavage. PCP was dissolved in sterile saline (0.9% NaCl).
Rats were dosed with either saline (0.9% NaCl) or 2.5 mg/kg PCP by intraperitoneal injection 15 minutes prior to PPI testing.
(2 S)-2-(2-Bromo-3-oxo-spiro[3.5]non-1-en-1-ylamino)-3-[4-([2,7]naphthyridin-1-ylamino)phenyl]proprionic acid or Clozapine was administered orally by gavage 45 minutes before challenge with PCP or saline. (2S)-2-(2-Bromo-3-oxo-spiro[3.5]non-1-en-1-ylamino)-3-[4-([2,7]naphthyridin-1-ylamino)phenyl]proprionic acid was administered at 10 mg/kg and 50 mg/kg. Clozapine was administered at 5 mg/kg. Vehicle control rats received Vehicle (5% Tween 80/5% PEG/saline) by oral gavage 45 minutes before challenge with PCP or saline.
Exactly 15 minutes after the injection of PCP or saline, the full PPI protocol was started. Animals were exposed to 5 minutes of 65 dB background noise (white noise) as an acclimation period, before the acoustic stimuli began. • Block 1: 6× startle stimulus alone (white noise, 120 dB, 40 ms) • Block 2: 14× startle stimulus • 8× no pulse • 30× pre-pulse (10 each of 4, 8, and 16 dB above the background noise) followed 100 ms later by the startle stimulus. This corresponds to intensities of 69, 73 and 81 dB, respectively. A total of 52 trials were presented to the animals in this block in a pseudo-random order with a variable interval of 8 to 23 seconds, averaging 15 s between trials). • Block 3: 6× startle stimulus alone
Pre-pulse inhibition was calculated from trials in Block 2 by the following formula:
% PPI=(100×[(pulse alone score)−(prepulse+pulse score)]/pulse alone

## O=C(O)[C@H](Cc1ccc(Nc2nccc3ccncc23)cc1)NC1=C(Br)C(=O)C12CCCCC2 [(2S)-2-(2-Bromo-3-oxo-spiro[3.5]non-1-en-1-ylamino)-3-[4-([2,7]naphthyridin-1-ylamino)phenyl]proprionic acid]
50 mg/kg
  reversal of PCP-induced deficit in PPI, percent PPI averaged for all three prepulse intensities: reversal
  reversal of PCP-induced deficit in PPI: reversal
Listed as MGCD-0103, 50 mg/kg
  reversal of PCP-induced deficit in PPI, percent PPI averaged for all three prepulse intensities: significantly (p<0.05) reversed
  reversal of PCP-induced deficit in PPI: significantly (p<0.05) reversed
Prepulse intensity 69 dB (4 dB above background), rats
  effect on pre-pulse inhibition: did not have a statistically significant effect
Prepulse intensity 73 dB (8 dB above background), dose not specified (10 and 50 mg/kg p.o. tested), rats
  ability to attenuate the PCP-induced deficit in PPI: more evident
Prepulse intensity 81 dB (16 dB above background), rats
  effect on pre-pulse inhibition: did not have a statistically significant effect
